Results on 9 compounds are retold here after US20100137346A1, “DESFE[…] ACTINIDE DEC[…]” (priority 2006, published 2010).

Like-named read-outs stand apart in the source and are kept apart here.

The conditions of series [1]: cited from earlier work; for iron-clearing activity, in words: C. apella model; for iron-clearing efficiency, in words: in both rodents and primates.
For series [2] the following is noted: bile duct-cannulated rodent model; cited from earlier work.
The conditions of series [3]: in vivo; cited from earlier work.
The conditions of series [4]: rats, same dose; cited from earlier work.
The nature of series [5]: Chelator accumulation in lung tissue. The series is classed as in vivo, rodents. As to conditions: SC 300 μmol/kg, 0.5 h post drug. The source says: Chelator Access to Lung Tissue. As inhalation is one of the principal routes of potential actinide contamination, in a preliminary study aimed at this proposal, the accumulation of two different DFT analogues in lung tissue, (S)-4′-(HO)-DADMDFT (9, FIG. 1) and (S)-3′,4′-(CH3O)-DADMDFT, 19, Table 2)] was investigated. Rodents were given the drugs SC at a dose of 300 μmol/kg. The latter chelator is far more lipophilic than the former. The more lipophilic chelator (19) achieved a concentration of 290±66 nmol/g wet weight 0.5 h post drug. The level of the less lipophilic ligand (9) was much lower, 80±9 nmol/g wet weight 0.5 h post drug. This is consistent with the idea that organ targeting can be achieved,[Bergeron, et al., Impact of the Lipophilicity of Desferrithiocin Analogues on Iron Clearance, Medicinal Inorganic Chemistry 2005; 366-383] corroborating previous studies and further contributing to the index of success of the invention.

Series [6] can be described thus: Iron-clearing efficiency (ICE) in iron-overloaded Cebus apella primate. The series is classed as in vivo. As to conditions: orally to C. apella primates, 150 μmol/kg. The protocol: In the text below, “iron-clearing efficiency” (ICE) [Bergeron, et al., Effects of C-4 Stereochemistry and C-4′ Hydroxylation on the Iron Clearing Efficiency and Toxicity of Desferrithiocin Analogues, J Med Chem 1999; 42:2432-2440] is used as a measure of the amount of iron excretion induced by a chelator. The ICE, expressed as a percent, is calculated as (ligand-induced iron excretion/theoretical iron excretion)×100. To illustrate, the theoretical iron excretion after administration of one millimole of desferrioxamine (DFO, 14, Table 1), a hexadentate chelator which forms a 1:1 complex with Fe(III), is one milli-g-atom of iron. Two millimoles of desferrithiocin (DFT, 1, FIG. 1), a tridentate chelator which forms a 2:1 complex with Fe(III), are required for the theoretical excretion of one milli-g-atom of iron. In clinical practice, the actual ICE of DFO (14), used to treat people with iron overload, is only 5 to 7% [Pippard, et al., Iron Chelation Using Subcutaneous Infusions of Diethylene Triamine Penta-acetic Acid (DTPA), Scand J Haematol 1986; 36:466-472; Pippard, Desferrioxamine-Induced Iron Excretion in Humans, Bailliere's Clin Haematol 1989; 2:323-343]. […]

Series [7] can be described thus: Chelator-induced uranium excretion (urine + bile, 24 h) in bile duct-cannulated rat model. It counts as in vivo. As to conditions: for % of Administered Dose Cleared: 300 μmol/kg IP Immediate. The protocol:
Desferrithiocin Analogue Induced Excretion of Uranium. In order to compare results with previous chelator-induced iron excretion data, the uranium clearance studies were carried out in a bile duct-cannulated rat model. The animals were given uranyl acetate dihydrate SC at a dose of 5 mg/kg (the actual dose of uranium is 2.8 mg/kg). Bile and urine samples were collected for 24 hours after dosing. Kidneys were removed from selected animals and tissue uranium concentration measured. At least three animals were utilized in each experimental group. Data from two separate control studies (uranyl acetate/ no chelator) have now been combined for a total of 14 control animals. All uranium concentrations were measured using ICPMS. The data are reported as the total quantity of uranium excreted [urine +bile]; the mode of excretion [urine/bile] is also given. In addition the percentage of the administered dose of uranium cleared and chelator-induced uranium excretion vs the controls is also given. Four positive controls were evaluated: DTPA (13, Table 1) given as its trisodium calcium salt, DFO (14), N,N′-bis(2hydroxybenzyl)ethylenediamine-N,N′-diacetic acid, monosodium salt (NaHBED, 15) and the hydroxypyridone CP94 (16) shown to bind uranium [Pashalidis, et al., Effective complex formation in the interaction of 1,2-dimethyl-3-hydroxypyrid-4-one (Deferiprone or L1) with uranium(VI), Journal of Radioanalytical and Nuclear Chemistry 1999; 242:181-184.] The total metal cleared after 24 h in control rats was 10% of the administered dose. When DTPA, 13, was given IP or PO at 300 μmol/kg immediately after uranium, the excretion was 17% and 8% of the administered dose respectively (p>0.05). However, when the drug was given IP at a dose of 600 μmol/kg immediately post-metal, the uranium excretion was significant, 20% (p<0.005). This is consistent with previously published data using a similar animal model.[Domingo, et al., Comparative effects of the chelators sodium 4,5-dihydroxybenzene-1,3-disulfonate (Tiron) and diethylenetriaminepentaacetic acid (DTPA) on acute uranium nephrotoxicity in rats, Toxicology 1997; 118:49-59] DFO (14) and CP94 (16) given IP immediately post uranyl acetate were ineffective.
Desferrithiocin Analogue-Induced Excretion of Uranium. In order to compare results with previous chelator-induced iron excretion data, the uranium clearance studies were carried out in a bile duct-cannulated rat model. The animals were given uranyl acetate dihydrate SC at a dose of 5 mg/kg (the actual dose of uranium is 2.8 mg/kg). Bile and urine samples were collected for 24 hours after dosing. Kidneys were removed from selected animals and tissue uranium concentration measured. At least three animals were utilized in each experimental group. Data from two separate control studies (uranyl acetate/ no chelator) are combined for a total of 14 control animals. All uranium concentrations were measured using ICPMS. The data are reported as the total quantity of uranium excreted [urine +bile]; the mode of excretion [urine/bile] is also given. In addition the percentage of the administered dose of uranium cleared and chelator-induced uranium excretion vs the controls is also given. Four positive controls were evaluated: DTPA (1, Table 1) given as its trisodium calcium salt, DFO (2), N,N -bis(2-hydroxybenzyl)ethylenediamine-N,N-diacetic acid, monosodium salt (NaHBED, 3) and the hydroxypyridone CP94 (4) shown to bind uranium. The total metal cleared after 24 h in control rats was 10% of the administered dose. When DTPA, 1, was given IP or PO at 300 μmol/kg immediately after uranium, the excretion was 17% and 8% of the administered dose respectively (p>0.05). However, when the drug was given IP at a dose of 600 μmol/kg immediately post metal, the uranium excretion was significant, 20% (p<0.005). This is consistent with previously published data using a similar animal model.^2 DFO (2) and CP94 (4) given IP immediately post uranyl acetate were ineffective.

For series [8] the following is noted: cited from earlier work.
The conditions of series [9]: rodents; cited from earlier work.
[10] abbreviates: iron-overloaded C. apella primate.
Setting [11] is: administered PO at a dose of 150 μmol/kg.

Take `C[C@]1(C(=O)O)CSC(c2ncccc2O)=N1` [Compound 1, (S)-4,5-dihydro-2-(3-hydroxy-2-pyridinyl)-4methyl-4-thiazolecarboxylic acid, reference compound]: the ICE in [1] (setting [10]) was 16%; in series [2], 5.5%. Also, the “toxicity, in words” value in [3] is given as “severely nephrotoxic”.

On to `O=C(O)[C@H]1CSC(c2ccccc2O)=N1` [Compound 4, (S)-4,5-dihydro-2-(2-hydroxyphenyl)-4-thiazolecarboxylic acid], for which the ICE is given as 12.4% in series [1] (setting [11]) and 12% in [1] (setting [10]). Further, the “outcome of planned 10-day dosing regimen” value in [4] is given as “dead by day 5”. The “toxicity, in words” value in series [3] is reported as “Severe gastrointestinal (GI) toxicity”.

As for `O=C(O)[C@H]1CSC(c2ccc(O)cc2O)=N1` [Compound 9, (S)-2(2,4-dihydroxyphenyl)-4,5-dihydro-4-thiazolecarboxylic acid], in series [5], the “concentration in lung tissue” value is listed as 80±9 nmol/g wet weight. Further, the “iron-clearing activity, in words” value in series [1] is recorded as “compatible with iron clearance”. In series [1] (setting [11]), the ICE is given as 5.3%. Also, the “outcome of planned 10-day dosing regimen” value in [4] is recorded as “did not display any frank toxicity”.

Regarding `COc1ccc(C2=N[C@@H](C(=O)O)CS2)c(O)c1OC` [drawing 26], the “Iron Clearing Efficiency (%)” value in series [6] was found to be 12.4 ± 6.2%. In [6] ([stool/urine]), the “relative percentages of the iron excreted in the stool and urine” value is given as 94/6.

With `COc1ccc(C2=N[C@@](C)(C(=O)O)CS2)c(O)c1` [Compound 12, (S)-4,5-dihydro2-(2-hydroxy-4-methoxyphenyl)4-methyl-4-thiazolecarboxylic acid], the “% of Administered Dose Cleared” value in series [7] stood at 20%. Besides, the “uranium excretion, in words” value in [7] (IP 300 μmol/kg, given 0.5 h post metal) is “within error of control”. The “iron-clearing efficiency, in words” value in [1] is “excellent iron-clearing efficiency”. For the same compound, the “toxicity, in words” value in series [3] is reported as “too toxic for clinical consideration”. Besides, in series [8] (in vivo), the “metabolite formed by metabolic O-demethylation” value is listed as “(S)-4′-(HO)-DADFT (10)”.

For the compound `C[C@]1(C(=O)O)CSC(c2ccc(O)cc2O)=N1` [Compound 10, (S)-2-(2,4-dihydroxyphenyl)-4,5-dihydro-4-methyl-4-thiazolecarboxylic acid], the “% of Administered Dose Cleared” value in series [7] is 19%. For the same compound, the “iron-clearing activity, in words” value in series [1] is given as “compatible with iron clearance”. Further, the ICE in series [1] (given orally to the primates at an iron binding equivalent dose) is listed as 13.4±5.8%. The “outcome of planned 10-day dosing regimen” value in series [4] was “did not display any frank toxicity”.

As to `COCCOCCOCCOc1ccc(C2=N[C@@](C)(C(=O)O)CS2)c(O)c1` [Compound 18, (S)-4,5-dihydro-2-[2-hydroxy-4-(3,6,9-trioxadecyloxy)phenyl]-4methyl-4-thiazolecarboxylic acid], the “% of Administered Dose Cleared” value in [7] is reported as 22%. Besides, the “iron-clearing efficiency, in words” value in series [1] is given as “highly efficient iron chelator”. Further, in series [8] (rodents), the “kidney concentration versus 10” value was “significantly lower concentrations in the kidney” and the “liver concentration versus 10” value is recorded as “higher concentrations in the liver”. For the same compound, the “tolerability versus 10” value in series [9] is reported as “more tolerable”.

Turning to `C[C@]1(C(=O)O)CSC(c2ccccc2O)=N1` [Compound 3, (S)-4,5-dihydro-2-(2-hydroxyphenyl)-4-methyl-4-thiazolecarboxylic acid], the ICE in [1] (setting [10]) is listed as 13%. For the same compound, in series [4], the “outcome of planned 10-day dosing regimen” value is recorded as “dead by day 5”. Also, the “toxicity, in words” value in series [3] is “Severe gastrointestinal (GI) toxicity”.

`COc1ccc(C2=N[C@@H](C(=O)O)CS2)c(O)c1OC` [Compound 19, (S)-4,5-dihydro-2(3,4-dimethoxy-2-hydroxyphenyl)-4-thiazolecarboxylic acid]: the “concentration in lung tissue” value in [5] was determined as 290±66 nmol/g wet weight.
